Laboratory results: ChEMBL document CHEMBL4765227, “Hit to lead optimization of a series of N-[4-(1,3-benzothiazol-2-yl)phenyl]acetamides as monoacylglycerol lipase inhibitors with potential anticancer activity” (Eur J Med Chem, 2016)

How the values were obtained:
Assay type in all cases: functional
Conditions in all cases: read-out: GI
NCI-H522 = experiment: Growth inhibition of human NCI-H522 cells at 10 uM incubated for 48 hrs by sulforhodamine B assay relative to control
SK-OV-3 = experiment: Growth inhibition of human SK-OV-3 cells at 10 uM incubated for 48 hrs by sulforhodamine B assay relative to control
SF-539 = experiment: Growth inhibition of human SF-539 cells at 10 uM incubated for 48 hrs by sulforhodamine B assay relative to control
SK-MEL-28 = experiment: Growth inhibition of human SK-MEL-28 cells at 10 uM incubated for 48 hrs by sulforhodamine B assay relative to control
MOLT-4 = experiment: Growth inhibition of human MOLT-4 cells at 10 uM incubated for 48 hrs by sulforhodamine B assay relative to control
NCI-H23 = experiment: Growth inhibition of human NCI-H23 cells at 10 uM incubated for 48 hrs by sulforhodamine B assay relative to control
HCT-15 = experiment: Growth inhibition of human HCT-15 cells at 10 uM incubated for 48 hrs by sulforhodamine B assay relative to control
CCRF-CEM = experiment: Growth inhibition of human CCRF-CEM cells at 10 uM incubated for 48 hrs by sulforhodamine B assay relative to control
HL-60(TB) = experiment: Growth inhibition of human HL-60(TB) cells at 10 uM incubated for 48 hrs by sulforhodamine B assay relative to control
UACC-62 = experiment: Growth inhibition of human UACC-62 cells at 10 uM incubated for 48 hrs by sulforhodamine B assay relative to control
OVCAR-8 = experiment: Growth inhibition of human OVCAR-8 cells at 10 uM incubated for 48 hrs by sulforhodamine B assay relative to control
KM12 = experiment: Growth inhibition of human KM12 cells at 10 uM incubated for 48 hrs by sulforhodamine B assay relative to control
PC-3 = experiment: Growth inhibition of human PC-3 cells at 10 uM incubated for 48 hrs by sulforhodamine B assay relative to control
RXF 393 = experiment: Growth inhibition of human RXF 393 cells at 10 uM incubated for 48 hrs by sulforhodamine B assay relative to control
HOP-92 = experiment: Growth inhibition of human HOP-92 cells at 10 uM incubated for 48 hrs by sulforhodamine B assay relative to control
ACHN = experiment: Growth inhibition of human ACHN cells at 10 uM incubated for 48 hrs by sulforhodamine B assay relative to control
HOP-62 = experiment: Growth inhibition of human HOP-62 cells at 10 uM incubated for 48 hrs by sulforhodamine B assay relative to control
SR = experiment: Growth inhibition of human SR cells at 10 uM incubated for 48 hrs by sulforhodamine B assay relative to control
MDA-MB-435 = experiment: Growth inhibition of human MDA-MB-435 cells at 10 uM incubated for 48 hrs by sulforhodamine B assay relative to control
SF-295 = experiment: Growth inhibition of human SF-295 cells at 10 uM incubated for 48 hrs by sulforhodamine B assay relative to control
K562 = experiment: Growth inhibition of human K562 cells at 10 uM incubated for 48 hrs by sulforhodamine B assay relative to control
U-251 = experiment: Growth inhibition of human U-251 cells at 10 uM incubated for 48 hrs by sulforhodamine B assay relative to control
SNB-75 = experiment: Growth inhibition of human SNB-75 cells at 10 uM incubated for 48 hrs by sulforhodamine B assay relative to control
HCT-116 = experiment: Growth inhibition of human HCT-116 cells at 10 uM incubated for 48 hrs by sulforhodamine B assay relative to control
TK-10 = experiment: Growth inhibition of human TK-10 cells at 10 uM incubated for 48 hrs by sulforhodamine B assay relative to control
M14 = experiment: Growth inhibition of human M14 cells at 10 uM incubated for 48 hrs by sulforhodamine B assay relative to control
MCF7 = experiment: Growth inhibition of human MCF7 cells at 10 uM incubated for 48 hrs by sulforhodamine B assay relative to control
UACC-257 = experiment: Growth inhibition of human UACC-257 cells at 10 uM incubated for 48 hrs by sulforhodamine B assay relative to control
T47D = experiment: Growth inhibition of human T47D cells at 10 uM incubated for 48 hrs by sulforhodamine B assay relative to control
OVCAR-4 = experiment: Growth inhibition of human OVCAR-4 cells at 10 uM incubated for 48 hrs by sulforhodamine B assay relative to control
MDA-MB-231 = experiment: Growth inhibition of human MDA-MB-231 cells at 10 uM incubated for 48 hrs by sulforhodamine B assay relative to control
HT-29 = experiment: Growth inhibition of human HT-29 cells at 10 uM incubated for 48 hrs by sulforhodamine B assay relative to control
SN12C = experiment: Growth inhibition of human SN12C cells at 10 uM incubated for 48 hrs by sulforhodamine B assay relative to control
RPMI-8226 = experiment: Growth inhibition of human RPMI-8226 cells at 10 uM incubated for 48 hrs by sulforhodamine B assay relative to control
HCC 2998 = experiment: Growth inhibition of human HCC 2998 cells at 10 uM incubated for 48 hrs by sulforhodamine B assay relative to control
SF-268 = experiment: Growth inhibition of human SF-268 cells at 10 uM incubated for 48 hrs by sulforhodamine B assay relative to control
UO-31 = experiment: Growth inhibition of human UO-31 cells at 10 uM incubated for 48 hrs by sulforhodamine B assay relative to control
MDA-MB-468 = experiment: Growth inhibition of human MDA-MB-468 cells at 10 uM incubated for 48 hrs by sulforhodamine B assay relative to control
SK-MEL-5 = experiment: Growth inhibition of human SK-MEL-5 cells at 10 uM incubated for 48 hrs by sulforhodamine B assay relative to control
LOX IMVI = experiment: Growth inhibition of human LOX IMVI cells at 10 uM incubated for 48 hrs by sulforhodamine B assay relative to control
DU-145 = experiment: Growth inhibition of human DU-145 cells at 10 uM incubated for 48 hrs by sulforhodamine B assay relative to control
A549 = experiment: Growth inhibition of human A549/ATCC cells at 10 uM incubated for 48 hrs by sulforhodamine B assay relative to control
SNB-19 = experiment: Growth inhibition of human SNB-19 cells at 10 uM incubated for 48 hrs by sulforhodamine B assay relative to control
BT-549 = experiment: Growth inhibition of human BT-549 cells at 10 uM incubated for 48 hrs by sulforhodamine B assay relative to control

SMILES: COc1ccc(NCC(=O)Nc2ccc(-c3nc4ccccc4s3)cc2)cc1
- inhibition of growth at 10 µM (NCI-H522): 5.02%
- inhibition of growth at 10 µM (SK-OV-3): -7.58%
- inhibition of growth at 10 µM (SF-539): 3.41%
- inhibition of growth at 10 µM (SK-MEL-28): -11.1%
- inhibition of growth at 10 µM (MOLT-4): 33.7%
- inhibition of growth at 10 µM (NCI-H23): 14.3%
- inhibition of growth at 10 µM (HCT-15): 10.1%
- inhibition of growth at 10 µM (CCRF-CEM): 40.8%
- inhibition of growth at 10 µM (HL-60(TB)): 20.9%
- inhibition of growth at 10 µM (UACC-62): 0.37%
- inhibition of growth at 10 µM (OVCAR-8): 4.93%
- inhibition of growth at 10 µM (KM12): 3.03%
- inhibition of growth at 10 µM (PC-3): 12.9%
- inhibition of growth at 10 µM (RXF 393): -1.89%
- inhibition of growth at 10 µM (HOP-92): 29.1%
- inhibition of growth at 10 µM (ACHN): -3.5%
- inhibition of growth at 10 µM (HOP-62): 14.6%
- inhibition of growth at 10 µM (SR): 15.6%
- inhibition of growth at 10 µM (MDA-MB-435): -7.51%
- inhibition of growth at 10 µM (SF-295): 3.2%
- inhibition of growth at 10 µM (K562): 11.6%
- inhibition of growth at 10 µM (U-251): 19.1%
- inhibition of growth at 10 µM (SNB-75): 25.4%
- inhibition of growth at 10 µM (HCT-116): 11.6%
- inhibition of growth at 10 µM (TK-10): -8.6%
- inhibition of growth at 10 µM (M14): 0.16%
- inhibition of growth at 10 µM (MCF7): 35%
- inhibition of growth at 10 µM (UACC-257): -3.88%
- inhibition of growth at 10 µM (T47D): 31.2%
- inhibition of growth at 10 µM (OVCAR-4): 12.8%
- inhibition of growth at 10 µM (MDA-MB-231): 27.5%
- inhibition of growth at 10 µM (HT-29): -8.15%
- inhibition of growth at 10 µM (SN12C): 5.87%
- inhibition of growth at 10 µM (RPMI-8226): 13.6%
- inhibition of growth at 10 µM (HCC 2998): 3.49%
- inhibition of growth at 10 µM (SF-268): 10.5%
- inhibition of growth at 10 µM (UO-31): 28.1%
- inhibition of growth at 10 µM (MDA-MB-468): 5.6%
- inhibition of growth at 10 µM (SK-MEL-5): 2.74%
- inhibition of growth at 10 µM (LOX IMVI): 8.68%
- inhibition of growth at 10 µM (DU-145): 0.77%
- inhibition of growth at 10 µM (A549): 10.5%
- inhibition of growth at 10 µM (SNB-19): 11.4%
- inhibition of growth at 10 µM (BT-549): 15.2%

SMILES: Cc1ccc(NCC(=O)Nc2ccc(-c3nc4ccccc4s3)cc2)cc1
- inhibition of growth at 10 µM (NCI-H522): 12.3%
- inhibition of growth at 10 µM (SK-OV-3): -13.1%
- inhibition of growth at 10 µM (SF-539): 2.9%
- inhibition of growth at 10 µM (SK-MEL-28): -17.2%
- inhibition of growth at 10 µM (MOLT-4): 41.9%
- inhibition of growth at 10 µM (NCI-H23): 16.4%
- inhibition of growth at 10 µM (HCT-15): 13.4%
- inhibition of growth at 10 µM (CCRF-CEM): 60.1%
- inhibition of growth at 10 µM (HL-60(TB)): 18.2%
- inhibition of growth at 10 µM (UACC-62): 14.5%
- inhibition of growth at 10 µM (OVCAR-8): 7.13%
- inhibition of growth at 10 µM (KM12): 0.91%
- inhibition of growth at 10 µM (PC-3): 8.39%
- inhibition of growth at 10 µM (RXF 393): 10.7%
- inhibition of growth at 10 µM (HOP-92): 15.7%
- inhibition of growth at 10 µM (ACHN): -6.82%
- inhibition of growth at 10 µM (HOP-62): 3.62%
- inhibition of growth at 10 µM (SR): 19.1%
- inhibition of growth at 10 µM (MDA-MB-435): -1.83%
- inhibition of growth at 10 µM (SF-295): -3.28%
- inhibition of growth at 10 µM (K562): -0.15%
- inhibition of growth at 10 µM (U-251): 19.4%
- inhibition of growth at 10 µM (SNB-75): -0.38%
- inhibition of growth at 10 µM (HCT-116): 5.72%
- inhibition of growth at 10 µM (TK-10): -7.12%
- inhibition of growth at 10 µM (M14): 3.66%
- inhibition of growth at 10 µM (MCF7): 40.9%
- inhibition of growth at 10 µM (UACC-257): 5.3%
- inhibition of growth at 10 µM (T47D): 33.8%
- inhibition of growth at 10 µM (OVCAR-4): 14.5%
- inhibition of growth at 10 µM (MDA-MB-231): 22.3%
- inhibition of growth at 10 µM (HT-29): -6.9%
- inhibition of growth at 10 µM (SN12C): 11.1%
- inhibition of growth at 10 µM (RPMI-8226): 18.6%
- inhibition of growth at 10 µM (HCC 2998): 17%
- inhibition of growth at 10 µM (SF-268): 12.6%
- inhibition of growth at 10 µM (UO-31): 37.5%
- inhibition of growth at 10 µM (MDA-MB-468): 13%
- inhibition of growth at 10 µM (SK-MEL-5): 11.3%
- inhibition of growth at 10 µM (LOX IMVI): 22.8%
- inhibition of growth at 10 µM (DU-145): 5.52%
- inhibition of growth at 10 µM (A549): 13.8%
- inhibition of growth at 10 µM (SNB-19): 10.5%
- inhibition of growth at 10 µM (BT-549): 35.4%
